Where “and” joins values, the source holds several entries; their conditions need not be identical. Identical values can stand only once. Inconclusive results and toxic doses are left out. Rule as the data show it: active = T/C of 150% or more; inactive = T/C below 125%.
Tested on: L1210 leukemia ip in BDF1 mice, survival T/C
Experiment: NCI In Vivo Anticancer Drug Screen. Data for tumor model L1210 Leukemia (intraperitoneal) in B6D2F1 (BDF1) mice
Settings: endpoint: mean survival time, higher = longer survival
Procedure, shortened: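 Mice bearing the transplanted tumor received compound or vehicle. Survival of the treated group was divided by that of the vehicle-treated control group to give the ratio.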

[1] = dose: 100.0 mg/kg/injection, schedule: Q01DX009 (ip), vehicle: saline
[2] = dose: 100.0 mg/kg/injection, schedule: Q04DX003 (ip), vehicle: saline
[3] = dose: 200.0 mg/kg/injection, schedule: Q01DX009 (ip), vehicle: saline
[4] = dose: 200.0 mg/kg/injection, schedule: Q04DX003 (ip), vehicle: saline
[5] = dose: 400.0 mg/kg/injection, schedule: Q01DX009 (ip), vehicle: saline
[6] = dose: 400.0 mg/kg/injection, schedule: Q04DX003 (ip), vehicle: saline
[7] = dose: 100.0 mg/kg/injection, schedule: Q01DX009 (ip), vehicle: Klucel (hydroxypropylcellulose) (HPC)
[8] = dose: 100.0 mg/kg/injection, schedule: Q04DX003 (ip), vehicle: Klucel (hydroxypropylcellulose) (HPC)
[9] = dose: 200.0 mg/kg/injection, schedule: Q01DX009 (ip), vehicle: Klucel (hydroxypropylcellulose) (HPC)
[10] = dose: 200.0 mg/kg/injection, schedule: Q04DX003 (ip), vehicle: Klucel (hydroxypropylcellulose) (HPC)
[11] = dose: 400.0 mg/kg/injection, schedule: Q01DX009 (ip), vehicle: Klucel (hydroxypropylcellulose) (HPC)
[12] = dose: 400.0 mg/kg/injection, schedule: Q04DX003 (ip), vehicle: Klucel (hydroxypropylcellulose) (HPC)
[13] = dose: 100.0 mg/kg/injection, schedule: Q01DX001 (ip), vehicle: Klucel (hydroxypropylcellulose) (HPC)
[14] = dose: 200.0 mg/kg/injection, schedule: Q01DX001 (ip), vehicle: Klucel (hydroxypropylcellulose) (HPC)
[15] = dose: 400.0 mg/kg/injection, schedule: Q01DX001 (ip), vehicle: Klucel (hydroxypropylcellulose) (HPC)
[16] = dose: 100.0 mg/kg/injection, schedule: Q04DX002 (ip), vehicle: saline
[17] = dose: 200.0 mg/kg/injection, schedule: Q04DX002 (ip), vehicle: saline
[18] = dose: 400.0 mg/kg/injection, schedule: Q04DX002 (ip), vehicle: saline
[19] = dose: 100.0 mg/kg/injection, schedule: Q01DX009 (ip), vehicle: saline with Tween-80
[20] = dose: 100.0 mg/kg/injection, schedule: Q04DX003 (ip), vehicle: saline with Tween-80
[21] = dose: 200.0 mg/kg/injection, schedule: Q01DX009 (ip), vehicle: saline with Tween-80
[22] = dose: 400.0 mg/kg/injection, schedule: Q01DX009 (ip), vehicle: saline with Tween-80
[23] = dose: 25.0 mg/kg/injection, schedule: Q01DX009 (ip), vehicle: saline with Tween-80
[24] = dose: 50.0 mg/kg/injection, schedule: Q01DX009 (ip), vehicle: saline with Tween-80

Measured: T/C

CCOC(=O)CCN1CC(C)OC(C)C1 (stereo unspecified)
inactive: [1] 97 % of control | [2] 93 % of control | [3] 97 % of control | [4] 102 % of control | [5] 103 % of control | [6] 111 % of control

COP(=S)(OC)N1CC1
inactive: dose: 11.1 mg/kg/injection, schedule: Q01DX Z (ip), vehicle: saline 108 % of control | dose: 16.6 mg/kg/injection, schedule: Q01DX Z (ip), vehicle: saline 100 % of control | dose: 25.0 mg/kg/injection, schedule: Q01DX Z (ip), vehicle: saline 100 % of control

CCCCCCCCCCCCCCCCCCNC(=O)N(CC)c1ccccc1
inactive: [7] 101 % of control | [8] 93 % of control | [9] 98 % of control | [10] 101 % of control | [11] 106 % of control | [12] 92 % of control

Cl[C](Cl)(Cl)[Hg][c]1ccccc1
inactive: dose: 3.0 mg/kg/injection, schedule: Q01DX009 (ip), vehicle: Klucel (hydroxypropylcellulose) (HPC) 88 % of control | dose: 6.0 mg/kg/injection, schedule: Q01DX009 (ip), vehicle: Klucel (hydroxypropylcellulose) (HPC) 92 % of control | dose: 12.0 mg/kg/injection, schedule: Q01DX009 (ip), vehicle: Klucel (hydroxypropylcellulose) (HPC) 90 % of control | dose: 12.5 mg/kg/injection, schedule: Q01DX009 (ip), vehicle: Klucel (hydroxypropylcellulose) (HPC) 110 % of control

O=C(C[n+]1cccc(OC(=O)c2ccccc2)c1)c1ccc(-c2ccccc2)cc1
inactive: dose: 75.0 mg/kg/injection, schedule: Q04DX003 (ip), vehicle: Klucel (hydroxypropylcellulose) (HPC) 100 % of control | [13] 100 % of control | dose: 150.0 mg/kg/injection, schedule: Q04DX003 (ip), vehicle: Klucel (hydroxypropylcellulose) (HPC) 91 % of control | [14] 97 % of control | dose: 300.0 mg/kg/injection, schedule: Q04DX003 (ip), vehicle: Klucel (hydroxypropylcellulose) (HPC) 96 % of control | [15] 101 % of control

CC(C)(C)c1ccc(OC(=O)Nc2cccc(C(F)(F)F)c2)cc1
inactive: dose: 100.0 mg/kg/injection, schedule: Q01DX009 (ip), vehicle: gum acacia 101 % of control | dose: 200.0 mg/kg/injection, schedule: Q01DX009 (ip), vehicle: gum acacia 95 % of control | dose: 400.0 mg/kg/injection, schedule: Q01DX009 (ip), vehicle: gum acacia 103 % of control

CN(C)c1ccc(C(C#N)(c2ccc(N(C)C)cc2)c2ccc(N(C)C)cc2)cc1
inactive: [7] 95 % of control | [8] 103 % of control | [9] 97 % of control | [10] 106 % of control | [12] 90 % of control

CCN(CC)CCN1C(=O)[C@H]2CC=CC[C@H]2C1=O
inactive: dose: 44.0 mg/kg/injection, schedule: Q01DX Z (ip), vehicle: saline 111 % of control | dose: 66.0 mg/kg/injection, schedule: Q01DX Z (ip), vehicle: saline 100 % of control | dose: 100.0 mg/kg/injection, schedule: Q01DX Z (ip), vehicle: saline 98 % of control

C/C=C/C=C/COC(=O)CCCCCC
inactive: [16] 98 % of control and 108 % of control | [17] 108 % of control and 119 % of control | [18] 107 % of control | dose: 600.0 mg/kg/injection, schedule: Q04DX002 (ip), vehicle: saline 98 % of control

COCC(=O)O
inactive: [13] 100 % of control | [16] 102 % of control | [14] 96 % of control | [17] 94 % of control | [15] 100 % of control | [18] 97 % of control

Cc1ccc(S(=O)(=O)Nc2cccc3cc(Cl)ccc23)cc1
inactive: dose: 100.0 mg/kg/injection, schedule: Q04DX003 (ip), vehicle: acetone 94 % of control | dose: 200.0 mg/kg/injection, schedule: Q04DX003 (ip), vehicle: acetone 105 % of control | dose: 400.0 mg/kg/injection, schedule: Q04DX003 (ip), vehicle: acetone 91 % of control

NC(=O)NC1OC(COC(=O)c2ccccc2)C(OC(=O)c2ccccc2)C1OC(=O)c1ccccc1 (stereo unspecified)
inactive: [19] 89 % of control | [20] 92 % of control | [21] 90 % of control | dose: 200.0 mg/kg/injection, schedule: Q04DX003 (ip), vehicle: saline with Tween-80 94 % of control | [22] 89 % of control | dose: 400.0 mg/kg/injection, schedule: Q04DX003 (ip), vehicle: saline with Tween-80 94 % of control

O=C(Nc1ccccc1Cl)OCCOc1ccccc1
inactive: [7] 97 % of control | [9] 97 % of control | [11] 94 % of control

Cc1ccccc1NC(=O)C1CCC(C)(C(=O)O)C1(C)C (stereo unspecified)
inactive: [19] 102 % of control | [21] 102 % of control | [22] 95 % of control

CC(C)N=C(N)C(N)=NC(C)C
inactive: [1] 97 % of control | [2] 98 % of control | [3] 92 % of control | [4] 104 % of control | [5] 96 % of control | [6] 96 % of control

NC(N)=N/N=C/c1cccc([N+](=O)[O-])c1
inactive: dose: 15.0 mg/kg/injection, schedule: Q01DX Z (ip), vehicle: carboxymethylcellulose (CMC) 98 % of control | dose: 30.0 mg/kg/injection, schedule: Q01DX Z (ip), vehicle: carboxymethylcellulose (CMC) 93 % of control | dose: 60.0 mg/kg/injection, schedule: Q01DX Z (ip), vehicle: carboxymethylcellulose (CMC) 90 % of control

NC(=S)N/N=C/c1cccc(CC(O)(C(F)(F)F)C(F)(F)F)n1
inactive: dose: 12.5 mg/kg/injection, schedule: Q01DX009 (ip), vehicle: saline with Tween-80 97 % of control | [23] 95 % of control | [24] 93 % of control

C1CCN(CCC2CCCCN2)CC1 (stereo unspecified)
inactive: dose: 25.0 mg/kg/injection, schedule: Q04DX003 (ip), vehicle: saline 105 % of control | dose: 50.0 mg/kg/injection, schedule: Q04DX003 (ip), vehicle: saline 94 % of control | [2] 101 % of control and 92 % of control

COC(=O)/C=C1\Nc2ccc([N+](=O)[O-])cc2NC1=O
inactive: dose: 50.0 mg/kg/injection, schedule: Q01DX009 (ip), vehicle: Klucel (hydroxypropylcellulose) (HPC) 87 % of control | [7] 94 % of control | [9] 100 % of control

NNC(=O)CNc1ccc(F)c(Cl)c1
inactive: dose: 25.0 mg/kg/injection, schedule: Q04DX002 (ip), vehicle: saline + alcohol 113 % of control | dose: 50.0 mg/kg/injection, schedule: Q04DX002 (ip), vehicle: saline + alcohol 95 % of control | dose: 100.0 mg/kg/injection, schedule: Q04DX002 (ip), vehicle: saline + alcohol 98 % of control and 123 % of control

BrCC1CCCO1 (stereo unspecified)
inactive: [23] 106 % of control | dose: 25.0 mg/kg/injection, schedule: Q04DX003 (ip), vehicle: saline with Tween-80 102 % of control | [24] 90 % of control | dose: 50.0 mg/kg/injection, schedule: Q04DX003 (ip), vehicle: saline with Tween-80 101 % of control | [19] 89 % of control | [20] 101 % of control

COc1cccc(/C=C(\S)C(=O)O)c1O
inactive: dose: 100.0 mg/kg/injection, schedule: Q01DX001 (ip), vehicle: carboxymethylcellulose (CMC) 86 % of control | dose: 200.0 mg/kg/injection, schedule: Q01DX001 (ip), vehicle: carboxymethylcellulose (CMC) 89 % of control | dose: 400.0 mg/kg/injection, schedule: Q01DX001 (ip), vehicle: carboxymethylcellulose (CMC) 89 % of control

CC1CCC2N(C1)CC1C3(O)CC45OC6(O)C(O)CCC4(C)C6CCC5C3(O)CC(O)C1(O)C2(C)O (stereo unspecified)
inactive: dose: 75.0 mg/kg/injection, schedule: Q01DX001 (ip), vehicle: saline 104 % of control | dose: 150.0 mg/kg/injection, schedule: Q01DX001 (ip), vehicle: saline 105 % of control

O=C(CC(c1ccccc1)N1CCN(c2ccccc2)CC1)c1ccccc1 (stereo unspecified)
inactive: [8] 102 % of control | [10] 97 % of control | [12] 94 % of control
